Test results taken from ChEMBL document CHEMBL3137667, “[Drug-induced liver injury; fourteenth updated edition of the bibliographic database of liver injuries and related drugs]” (Gastroenterol Clin Biol, 2004).

Experiments:
[1] = human
[2] = human; remark: listed apart in the source
[3] = human; remark: listed apart in the source
[4] = human, serum
[5] = human, serum; remark: listed apart in the source
[6] = human; remark: listed apart in the source
[7] = human; remark: listed apart in the source
[8] = Highest frequency of acute liver toxicity observed during clinical trials, expressed as a percentage. [column '% AIGUE' in source]; conditions: human
[9] = human; remark: listed apart in the source
[10] = human; remark: listed apart in the source
[11] = Highest frequency of moderate liver toxicity observed during clinical trials, expressed as a percentage. [column '% BIOL' in source]; conditions: human
[12] = human; remark: listed apart in the source
[13] = human, serum, 4383 h
[14] = human; remark: listed apart in the source
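Wherever Hepatotoxicity (association with vascular disease) is given: count of indexed literature references reporting vascular liver injury in humans, e.g. peliosis hepatitis, hepatic veno-occlusive disease or Budd-Chiari syndrome.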
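Wherever Hepatotoxicity (benign tumour) is given: value is a count of indexed literature references citing a benign tumour confirmed by histopathology.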
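Wherever Hepatotoxicity (choleostasis) is given: human cholestatic liver injury, shown by histopathology or by peak ALT or AST elevation over alkaline phosphatase ratio below 2, value counts indexed literature reports.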
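Wherever Hepatotoxicity (chronic liver disease) is given: chronic liver injury confirmed by histopathology or persistently raised serum aminotransferase activity beyond 6 months, value given as the count of indexed literature references.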
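Wherever Hepatotoxicity (cirrhosis) is given: value is a count of indexed literature references reporting cirrhosis confirmed by histopathology.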
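Wherever Hepatotoxicity (cytolytic) is given: human cytolytic liver injury, shown by histopathology or by a ratio above 5 of peak ALT or AST elevation to alkaline phosphatase elevation, value counts indexed references.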
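Wherever Hepatotoxicity (granulomatous hepatitis) is given: value is a count of indexed literature references reporting granulomatous liver disease confirmed by histopathology.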
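Wherever Hepatotoxicity (malignant tumour) is given: malignant tumour confirmed by histopathology, value gives the count of indexed literature references reporting it.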
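Wherever Hepatotoxicity (severe hepatitis) is given: human clinical data: severe hepatitis, meaning potentially life-threatening liver failure or clinically observed cases, the value counts how many indexed literature references report it.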
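Wherever Hepatotoxicity (steatosis) is given: steatosis confirmed by histopathology, value is the count of indexed references.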

| Compound | Hepatotoxicity (cirrhosis) [1] | Hepatotoxicity (steatosis) [2] | Hepatotoxicity (association with vascular disease) [3] | Hepatotoxicity (acute) [4] | Hepatotoxicity (moderate) [5] | Hepatotoxicity (benign tumour) [6] | Hepatotoxicity (choleostasis) [7] | Hepatotoxicity (acute) [8] [%] | Hepatotoxicity (severe hepatitis) [9] | Hepatotoxicity (granulomatous hepatitis) [10] | Hepatotoxicity (moderate) [11] [%] | Hepatotoxicity (cytolytic) [12] | Hepatotoxicity (chronic liver disease) [13] | Hepatotoxicity (malignant tumour) [14] | Hepatotoxicity (acute) ([8]; Liver) [%] | Hepatotoxicity (severe hepatitis) ([9]; Liver) | Hepatotoxicity (moderate) ([11]; Liver) [%] |
| --- | --- | --- | --- | --- | --- | --- | --- | --- | --- | --- | --- | --- | --- | --- | --- | --- | --- |
| CC(C)CN(C[C@@H](O)[C@H](Cc1ccccc1)NC(=O)O[C@H]1CCOC1)S(=O)(=O)c1ccc(N)cc1 | 0 | 0 | 0 | 3 | 0 | 0 | 0 | 10.7 | 0 | 0 | 0 | 3 | 0 | 0 | – | – | – |
| CCOC(=O)[C@H](CCc1ccccc1)N[C@@H](C)C(=O)N1[C@H](C(=O)O)C[C@@H]2CCC[C@@H]21 | 0 | 0 | 0 | 1 | 3 | 0 | 0 | 0 | 0 | 0 | 1.3 | 0 | 0 | 0 | – | – | – |
| C[C@@H](O)[C@H]1C(=O)N2C(C(=O)O)=C(S[C@@H]3CN[C@H](C(=O)Nc4cccc(C(=O)O)c4)C3)[C@H](C)[C@H]12 | 0 | 0 | 0 | 0 | 4 | 0 | 0 | 0 | 0 | 0 | 0 | 0 | 0 | 0 | – | – | – |
| CC(=O)OCC1=C(C(=O)O)N2C(=O)[C@@H](NC(=O)CC#N)[C@H]2SC1 | 0 | 0 | 0 | 0 | 1 | 0 | 0 | 0 | 0 | 0 | 29.6 | 0 | 0 | 0 | – | – | – |
| CC/C=C(\C(=O)N[C@@H]1C(=O)N2C(C(=O)OCOC(=O)C(C)(C)C)=C(COC(N)=O)CS[C@H]12)c1csc(N)n1 | 0 | 0 | 0 | 0 | 53 | 0 | 0 | 0 | 0 | 0 | 33.3 | 0 | 0 | 0 | – | – | – |
| C[Si](C)(C)c1cccc(C(=O)C(F)(F)F)c1 | 0 | 0 | 0 | 0 | 2 | 0 | 0 | 0 | 0 | 0 | 0 | 0 | 0 | 0 | – | – | – |
| N=C(N)NCCCCCCC(=O)NC(O)C(=O)NCCCCNCCCN (stereo not given) | 0 | 0 | 0 | 0 | 1 | 0 | 0 | 0 | 0 | 0 | 3.6 | 0 | 0 | 0 | – | – | – |
| CC(/C=C1\SC(=S)N(CC(=O)O)C1=O)=C\c1ccccc1 | 0 | 0 | 0 | 1 | 2 | 0 | 0 | 0 | 1 | 0 | 1 | 1 | 0 | 0 | – | – | – |
| C[C@]12C=CC(=O)C=C1CC[C@@H]1[C@@H]2CC[C@@]2(C)[C@H]1CC[C@]2(C)O (stereo in doubt; form 2) [METHANDROSTENOLONE] | – | – | – | 1 | – | 0 | 1 | – | – | – | – | – | – | 1 | – | – | – |
| COc1cccc2c1C(=O)c1c(O)c3c(c(O)c1C2=O)C[C@@](O)(C(=O)CO)C[C@@H]3O[C@H]1C[C@H](N)[C@@H](O)[C@H](C)O1 [EPIRUBICIN] | 0 | 0 | 0 | 0 | 3 | 0 | 0 | – | 0 | 0 | 6.4 | 0 | 0 | 0 | – | – | – |
| CCn1cc(C(=O)O)c(=O)c2cc(F)c(N3CCN(C)CC3)cc21 [PEFLOXACIN] | 0 | 0 | – | 0 | 5 | 0 | 0 | – | – | 0 | – | 0 | 0 | 0 | 0 | 0 | 16.7 |
| CARBETIMER | 0 | 0 | 0 | 0 | 2 | 0 | 0 | 0 | 0 | 0 | – | 0 | 0 | 0 | – | – | – |
